Tests used:
[1] = biological target: T1, HLA class I molecule B*0702 (Homo sapiens, UniProt P01889); experiment: REVEAL HLA-peptide binding assay, B*0702; parameters: concentration or dose not given beside the values; conditions: assembly of peptide-HLA complex by ELISA with conformation-dependent anti-HLA antibody, relative to positive control peptide for that allele, comparable within an allele only
T1 construct: purchased ProImmune Ltd., Oxford, UK
Protocol: (§1) The REVEAL HLA-peptide binding assay (ProImmune Ltd., Oxford, UK) was used to quantify peptide-HLA binding. For each allele-peptide combination that was tested, assembly of peptide-HLA complexes was quantified by ELISA with a conformation-dependent anti-HLA antibody. Samples of assembling peptide-HLA complexes were taken at a defined time point and snap-frozen in liquid nitrogen prior to analysis. The assembly for each peptide-HLA complex was then compared against a positive control peptide for that allele as the percentage of assembled peptide relative to that control. We selected four HLA class I alleles and 50 HTLV-1 peptides for each allele. The allele choice was based on allele frequency in the Kagoshima database and included 2 A alleles and 2 B alleles as well as alleles for which we knew that the epitope prediction tended to be poor. The 50 HTLV-1 nonamer peptides for each allele were selected to represent a range of predicted binding affinities, from weak to strong binding peptides. They originated from 4 HTLV-1 reference strain proteins: Tax, HBZ, Gag and Polymerase.
(§2) Note the binding score is with respect to a reference good binding peptide for each allele and therefore scores can be compared within an allele but not between alleles.

[2] = biological target: HLA class I molecule B*3501 (Homo sapiens, UniProt P01889, A329T/A93T/A95T/C349S/D201E/D98Y/E176V/E187L/E204Q/E69T/I218V/K202T/L119I/Q94N/R155S/R180L/S121R/S35A/S48A/T118I/V127L/V306I/V36M/Y140S/Y91F); experiment: REVEAL HLA-peptide binding assay, B*3501; conditions: assembly of peptide-HLA complex by ELISA with conformation-dependent anti-HLA antibody, relative to positive control peptide for that allele, comparable within an allele only
Protocol: as §1, §2

[3] = biological target: T2, HLA class I molecule A*0201 (Homo sapiens, UniProt P04439, D140Y/D185E/D98H/E176V/E277Q/G131W/G231S/I119V/I121R/I166T/I218V/L300P/L318F/N151K/N90K/P208A/P217A/Q86G/Q94H/R138H/R169H/T345S); type: binding; conditions: REVEAL assay, assembly of peptide-HLA complex by ELISA with conformation-dependent anti-HLA antibody, relative to positive control peptide for that allele, comparable within an allele only
T2 construct: purchased ProImmune Ltd., Oxford, UK

[4] = biological target: T3, HLA class I molecule A*2402 (Homo sapiens, UniProt P04439, D101N/D140Y/D185E/E176V/E190D/F33S/G103R/G107R/I119L/I121M/I306V/K335N/L105A/L180Q/L300P/N151K/N90K/Q86E/Q94H/R106L/R138H/R89G/T104I/T345S/V100E/W191G/Y123F); type: binding; conditions: REVEAL assay, assembly of peptide-HLA complex by ELISA with conformation-dependent anti-HLA antibody, relative to positive control peptide for that allele, comparable within an allele only
T3 construct: purchased ProImmune Ltd., Oxford, UK

QPARAPVTL [HTLV-1 nonamer peptide]
Score (experimentally measured binding affinity, % binding compared to control peptide) [1]: 135.43%
Score (experimentally measured binding affinity, % binding compared to control peptide) [2]: 55.56%

HQLKKFLKI [HTLV-1 nonamer peptide]
Score (experimentally measured binding affinity, % binding compared to control peptide) [3]: 0%
Score (experimentally measured binding affinity, % binding compared to control peptide) [4]: 46.49%

FVERLNIAL [HTLV-1 nonamer peptide]
Score (experimentally measured binding affinity, % binding compared to control peptide) [3]: 6.6%
Score (experimentally measured binding affinity, % binding compared to control peptide) [1]: 104.14%
Score (experimentally measured binding affinity, % binding compared to control peptide) [2]: 13.69%

MPVFTLSPV [HTLV-1 nonamer peptide from Pol]
Score (experimentally measured binding affinity, % binding compared to control peptide) [1]: 142.96%
Score (experimentally measured binding affinity, % binding compared to control peptide) [2]: 114.77%

RGRLRRGPP [HTLV-1 nonamer peptide]
Score (experimentally measured binding affinity, % binding compared to control peptide) [1]: 1.21%

RRRAEKKAA [HTLV-1 nonamer peptide]
Score (experimentally measured binding affinity, % binding compared to control peptide) [1]: 0%

WQMKDLQAI [HTLV-1 nonamer peptide]
Score (experimentally measured binding affinity, % binding compared to control peptide) [3]: 44.68%
Score (experimentally measured binding affinity, % binding compared to control peptide) [4]: 0%

YWQGRLEAM [HTLV-1 nonamer peptide]
Score (experimentally measured binding affinity, % binding compared to control peptide) [4]: 40.32%
Score (experimentally measured binding affinity, % binding compared to control peptide) [2]: 7.1%

FPGFGQSLL [HTLV-1 nonamer peptide]
Score (experimentally measured binding affinity, % binding compared to control peptide) [1]: 102.99%
Score (experimentally measured binding affinity, % binding compared to control peptide) [2]: 55.31%

KARRRRRAE [HTLV-1 nonamer peptide]
Score (experimentally measured binding affinity, % binding compared to control peptide) [1]: 0%

PPNHRPWQM [HTLV-1 nonamer peptide]
Score (experimentally measured binding affinity, % binding compared to control peptide) [1]: 103.11%

HPGQLGAFL [HTLV-1 nonamer peptide]
Score (experimentally measured binding affinity, % binding compared to control peptide) [1]: 60.82%
Score (experimentally measured binding affinity, % binding compared to control peptide) [2]: 34.24%

TPKDKTKVL [HTLV-1 nonamer peptide from Gag]
Score (experimentally measured binding affinity, % binding compared to control peptide) [1]: 113.7%

STLTTPGLI [HTLV-1 nonamer peptide]
Score (experimentally measured binding affinity, % binding compared to control peptide) [3]: 0.84%
Score (experimentally measured binding affinity, % binding compared to control peptide) [4]: 0%

VPYKRIEEL [HTLV-1 nonamer peptide]
Score (experimentally measured binding affinity, % binding compared to control peptide) [1]: 133.31%

YPGRVNEIL [HTLV-1 nonamer peptide]
Score (experimentally measured binding affinity, % binding compared to control peptide) [1]: 158.86%
Score (experimentally measured binding affinity, % binding compared to control peptide) [2]: 109.69%

DPISRLNAL [HTLV-1 nonamer peptide]
Score (experimentally measured binding affinity, % binding compared to control peptide) [1]: 115.84%
Score (experimentally measured binding affinity, % binding compared to control peptide) [2]: 67.38%

KISLTTGAL [HTLV-1 nonamer peptide]
Score (experimentally measured binding affinity, % binding compared to control peptide) [3]: 3.54%
Score (experimentally measured binding affinity, % binding compared to control peptide) [1]: 71.26%

LSPPITWPL [HTLV-1 nonamer peptide]
Score (experimentally measured binding affinity, % binding compared to control peptide) [3]: 34.53%
Score (experimentally measured binding affinity, % binding compared to control peptide) [4]: 4.52%
Score (experimentally measured binding affinity, % binding compared to control peptide) [2]: 41.83%

AASGLFRCL [HTLV-1 nonamer peptide]
Score (experimentally measured binding affinity, % binding compared to control peptide) [1]: 107.28%
Score (experimentally measured binding affinity, % binding compared to control peptide) [2]: 7.33%

RDRQRRAEE [HTLV-1 nonamer peptide]
Score (experimentally measured binding affinity, % binding compared to control peptide) [1]: 1.54%

LPVSCPEDL [HTLV-1 nonamer peptide]
Score (experimentally measured binding affinity, % binding compared to control peptide) [1]: 6.44%
Score (experimentally measured binding affinity, % binding compared to control peptide) [2]: 74.86%

AAHHWLNFL [HTLV-1 nonamer peptide]
Score (experimentally measured binding affinity, % binding compared to control peptide) [3]: 5.86%
Score (experimentally measured binding affinity, % binding compared to control peptide) [1]: 27.59%
Score (experimentally measured binding affinity, % binding compared to control peptide) [2]: 0%

RPAPPPPSS [HTLV-1 nonamer peptide]
Score (experimentally measured binding affinity, % binding compared to control peptide) [1]: 93.08%

VPIRSRWAL [HTLV-1 nonamer peptide]
Score (experimentally measured binding affinity, % binding compared to control peptide) [1]: 125.64%

RAEKKAADV [HTLV-1 nonamer peptide]
Score (experimentally measured binding affinity, % binding compared to control peptide) [1]: 2.78%

LEAERRKLL [HTLV-1 nonamer peptide]
Score (experimentally measured binding affinity, % binding compared to control peptide) [1]: 1.08%

LPFHSTLTT [HTLV-1 nonamer peptide]
Score (experimentally measured binding affinity, % binding compared to control peptide) [1]: 97.77%
Score (experimentally measured binding affinity, % binding compared to control peptide) [2]: 102.24%

APLPHTSQC [HTLV-1 nonamer peptide]
Score (experimentally measured binding affinity, % binding compared to control peptide) [1]: 135.12%

SARLHRHAL [HTLV-1 nonamer peptide]
Score (experimentally measured binding affinity, % binding compared to control peptide) [1]: 236.66%

IALETPARI [HTLV-1 nonamer peptide]
Score (experimentally measured binding affinity, % binding compared to control peptide) [3]: 17.01%
Score (experimentally measured binding affinity, % binding compared to control peptide) [4]: 9.68%

RPPRGLAAH [HTLV-1 nonamer peptide]
Score (experimentally measured binding affinity, % binding compared to control peptide) [1]: 143.59%
Score (experimentally measured binding affinity, % binding compared to control peptide) [2]: 34.86%

QPRPPPGPC [HTLV-1 nonamer peptide]
Score (experimentally measured binding affinity, % binding compared to control peptide) [1]: 138.82%

LVLQSSSFI [HTLV-1 nonamer peptide]
Score (experimentally measured binding affinity, % binding compared to control peptide) [3]: 41.33%
Score (experimentally measured binding affinity, % binding compared to control peptide) [1]: 1.65%

LPGLNSRQW [HTLV-1 nonamer peptide]
Score (experimentally measured binding affinity, % binding compared to control peptide) [1]: 6.78%

LPVMHPHGA [HTLV-1 nonamer peptide]
Score (experimentally measured binding affinity, % binding compared to control peptide) [1]: 9.38%

TPNIPPSFL [HTLV-1 nonamer peptide]
Score (experimentally measured binding affinity, % binding compared to control peptide) [1]: 138.52%

RVNEILHIL [HTLV-1 nonamer peptide]
Score (experimentally measured binding affinity, % binding compared to control peptide) [3]: 49.35%
Score (experimentally measured binding affinity, % binding compared to control peptide) [1]: 89.83%
Score (experimentally measured binding affinity, % binding compared to control peptide) [2]: 8.02%

ICPINYSLL [HTLV-1 nonamer peptide]
Score (experimentally measured binding affinity, % binding compared to control peptide) [4]: 69.19%

NYSLLASLL [HTLV-1 nonamer peptide]
Score (experimentally measured binding affinity, % binding compared to control peptide) [4]: 105.08%

PYNPTSSGL [HTLV-1 nonamer peptide]
Score (experimentally measured binding affinity, % binding compared to control peptide) [4]: 104.86%

NFLQAAYRL [HTLV-1 nonamer peptide]
Score (experimentally measured binding affinity, % binding compared to control peptide) [4]: 113.8%
Score (experimentally measured binding affinity, % binding compared to control peptide) [2]: 3.16%

SLVQLRQAL [HTLV-1 nonamer peptide]
Score (experimentally measured binding affinity, % binding compared to control peptide) [3]: 6.84%
Score (experimentally measured binding affinity, % binding compared to control peptide) [1]: 119.22%
Score (experimentally measured binding affinity, % binding compared to control peptide) [2]: 0%

TTPGLIWTF [HTLV-1 nonamer peptide]
Score (experimentally measured binding affinity, % binding compared to control peptide) [4]: 215.15%

IFSRSASPI [HTLV-1 nonamer peptide]
Score (experimentally measured binding affinity, % binding compared to control peptide) [4]: 62.41%

AWQNGLLPF [HTLV-1 nonamer peptide]
Score (experimentally measured binding affinity, % binding compared to control peptide) [4]: 92.6%

EYLKRKEEE [HTLV-1 nonamer peptide]
Score (experimentally measured binding affinity, % binding compared to control peptide) [4]: 0%

GYPGRVNEI [HTLV-1 nonamer peptide]
Score (experimentally measured binding affinity, % binding compared to control peptide) [4]: 82.68%

— PMC2944806, “HLA Class I Binding of HBZ Determines Outcome in HTLV-1 Infection” (PLoS Pathogens, 2010)
